Measurements as given in patent EP4752152A1, “STEROID COMPOUND, AND PREPARATION METHOD THEREFOR AND USE THEREOF” (Cholesgen (Shanghai) Co.Ltd., priority 2023, dated 2025).

Test system: SREBP pathway
Experiment: SREBP luciferase reporter gene system (SRE-luciferase assay)
Type: cell-based, human
Settings: Huh-7/SRE-luc cells, sterol-deficient medium, 0.01-10 µM
Description: Huh-7/SRE-luc cells were incubated in sterol-deficient medium (5% lipoprotein deficient serum, 2 µM lovastatin, 10 µM mevalonic acid) with corresponding concentrations of compounds for 16 hours. The Huh-7/SRE-luc cells were human hepatoma cell line Huh-7 stably expressing LDLR promotor-luciferase and green fluorescent protein (GFP). These cells were obtained by transfecting Huh-7 with pLDLR-promotor-luciferase and pEGFP-N1 plasmids, followed by screening under G418 antibiotic selection pressure. The Huh-7 cells were purchased from ATCC, the pLDLR-promotor-luciferase plasmid was obtained by molecular cloning methods, and the pEGFP-N1 plasmid was purchased from Addgene.
After compound treatment, the cells were lysed with lysis buffer (E397A, Promega). After the addition of luciferase substrate (E1500, Promega), the activity of SRE-driven luciferase was measured using a BioTek Synergy HTX microplate reader (including but not limited to this type of instrument). The fluorescence intensity of green fluorescent protein (EGFP) was also measured using the above BioTek microplate reader (including but not limited to this type of instrument) and served as an internal control. The ratio of SRE-driven luciferase activity divided by the fluorescence intensity of green fluorescent protein was used as an indicator of SREBP pathway activity. The test data for each test compound were analyzed using Prism software (with the DMSO-treated group as the reference to calculate the compound inhibition rate, fitted using the Prism log(inhibitor) vs. response--Variable slope (four-parameter) model, calculation formula: Y = Bottom + (Top - Bottom)/(1 + 10^((LogIC50 - X) × HillSlope))), to obtain the IC50 parameters of the compounds.
Using the method described in 1.1, the inhibitory effect of the compounds of the present disclosure on the SREBP pathway was tested. The concentration gradient for each compound was designed as 0.01, 0.03, 0.1, 0.3, 1.0, 3.0, and 10 µM, with the vehicle DMSO as the control.

SMILES	IC50 (Homo sapiens, Huh-7, 16 h) [µM]	IC50 (16 hours) [µM]
COc1cccc(OC)c1C(O)CCC[C@@H](C)[C@H]1CC[C@H]2C3=C(F)C[C@H]4[C@@H](O)[C@@H](O)CC[C@]4(C)[C@H]3CC[C@]12C (stereo partly drawn) [Compound 115, (1R,3aR,5aR,6R,7S,9aR,9bR,11aR)-1-[(2R)-6-(2,6-dimethoxyphenyl)-6-hydroxyhexan-2-yl]-4-fluoro-9a,11a-dimethyl-2,3,3a,5,5a,6,7,8,9,9a,9b,10,11,11a-tetradecahydro-1H-cyclopenta[1,2-a]phenanthrene-6,7-diol]	0.613	
COc1nc(C(O)CCC[C@@H](C)[C@H]2CC[C@H]3[C@H]4[C@H](CC[C@]23C)[C@@]2(C)CC[C@H](O)[C@H](O)[C@@H]2CC4(F)F)cs1 (single isomer, unassigned) [Compound 221, (1R,3aS,3bS,5aR,6R,7S,9aR,9bS,11aR)-4,4-difluoro-1-[(2R,6S)-6-hydroxy-6-(2-methoxy-1,3-thiazol-4-yl)hexan-2-yl]-9a,11a-dimethylhexadecahydro-1H-cyclopenta[1,2-a]phenanthrene-6,7-diol or (1R,3aS,3bS,5aR,6R,7S,9aR,9bS,11aR)-4,4-difluoro-1-[(2R,6R)-6-hydroxy-6-(2-methoxy-1,3-thiazol-4-yl)hexan-2-yl]-9a,11a-dimethylhexadecahydro-1H-cyclopenta[1,2-a]phenanthrene-6,7-diol]		0.183
COc1ncc(F)cc1[C@H](O)CCC[C@@H](C)[C@H]1CC[C@H]2[C@H]3[C@H](CC[C@]12C)[C@@]1(C)CC[C@H](O)[C@H](O)[C@@H]1CC3(F)F (single isomer, unassigned) [Compound 231]	0.062	
COc1cc(F)c(C(O)CCCC(C)C2CCC3C4C(CCC23C)C2(C)CCC(O)C(O)C2CC4(F)F)c(F)c1 (single isomer, unassigned) [Compound 204, (1R,3aS,3bS,5aR,6R,7S,9aR,9bS,11aR)-1-[(2R,6S)-6-(2,6-difluoro-4-methoxyphenyl)-6-hydroxyhexan-2-yl]-4,4-difluoro-9a,11a-dimethylhexadecahydro-1H-cyclopenta[1,2-a]phenanthrene-6,7-diol or (1R,3aS,3bS,5aR,6R,7S,9aR,9bS,11aR)-1-[(2R,6R)-6-(2,6-difluoro-4-methoxyphenyl)-6-hydroxyhexan-2-yl]-4,4-difluoro-9a,11a-dimethylhexadecahydro-1H-cyclopenta[1,2-a]phenanthrene-6,7-diol]	0.145	
C[C@H](CCCC(O)c1cccc2nnn(C)c12)[C@H]1CC[C@H]2[C@H]3[C@H](CC[C@]12C)[C@@]1(C)CC[C@H](O)[C@H](O)[C@@H]1CC3(F)F (single isomer, unassigned) [Compound 278, (1R,3aS,3bS,5aR,6R,7S,9aR,9bS,11aR)-4,4-difluoro-1-[(2R,6R)-6-hydroxy-6-(3-methylbenzo[d][1,2,3]triazol-4-yl)hexan-2-yl]-9a,11a-dimethylhexadecahydro-1H-cyclopenta[1,2-a]phenanthrene-6,7-diol or (1R,3aS,3bS,5aR,6R,7S,9aR,9bS,11aR)-4,4-Difluoro-1-[(2R,6S)-6-hydroxy-6-(3-methylbenzo[d][1,2,3]triazol-4-yl)hexan-2-yl]-9a,11a-dimethylhexadecahydro-1H-cyclopenta[1,2-a]phenanthrene-6,7-diol]		0.189
COc1cc(F)ccc1[C@@H](O)CCC[C@@H](C)[C@H]1CC[C@H]2C3=C(F)C[C@H]4[C@@H](O)[C@@H](O)CC[C@]4(C)[C@H]3CC[C@]12C [Compound 133, (1R,3aR,5aR,6R,7S,9aR,9bR,11aR)-4-fluoro-1-[(2R,6S)-6-(4-fluoro-2-methoxyphenyl)-6-hydroxyhexan-2-yl]-9a,11a-dimethyl-2,3,3a,5,5a,6,7,8,9,9a,9b,10,11,11a-tetradecahydro-1H-cyclopenta[1,2-a]phenanthrene-6,7-diol]	0.095	
C[C@H](CCCC(O)c1cnc2c(c1)OC(F)(F)O2)[C@H]1CC[C@H]2[C@H]3[C@H](CC[C@]12C)[C@@]1(C)CC[C@H](O)[C@H](O)[C@@H]1CC3(F)F (single isomer, unassigned) [Compound 286]		0.26
C[C@H](CCC1CC(=O)C1)[C@H]1CC[C@H]2[C@@H]3CC[C@H]4C[C@@H](O)CC[C@]4(C)[C@H]3CC[C@]12C [Compound 129, 3-[(3R)-3-[(1R,3aS,3bR,5aS,7S,9aS,9bS,11aR)-7-hydroxy-9a,11a-dimethylhexadecahydro-1H-cyclopenta[1,2-a]phenanthren-1-yl]butyl]cyclobutan-1-one]	0.32	
COc1cc(C(O)CCC[C@@H](C)[C@H]2CC[C@H]3[C@H]4[C@H](CC[C@]23C)[C@@]2(C)CC[C@H](O)[C@H](O)[C@@H]2CC4(F)F)cc(F)n1 (single isomer, unassigned) [Compound 247, (1R,3aS,3bS,5aR,6R,7S,9aR,9bS,11aR)-4,4-difluoro-1-[(2R,6S)-6-(6-fluoro-2-methoxypyridin-4-yl)-6-hydroxyhexan-2-yl]-9a,11a-dimethylhexadecahydro-1H-cyclopenta[1,2-a]phenanthrene-6,7-diol or (1R,3aS,3bS,5aR,6R,7S,9aR,9bS,11aR)-4,4-difluoro-1-[(2R,6R)-6-(6-fluoro-2-methoxypyridin-4-yl)-6-hydroxyhexan-2-yl]-9a,11a-dimethylhexadecahydro-1H-cyclopenta[1,2-a]phenanthrene-6,7-diol]	0.04	
C[C@H](CCCC(O)c1cccc2cn[nH]c12)[C@H]1CC[C@H]2C3=C(F)C[C@H]4[C@@H](O)[C@@H](O)CC[C@]4(C)[C@H]3CC[C@]12C (stereo partly drawn) [Compound 270, (1R,3aR,5aR,6R,7S,9aR,9bR,11aR)-4-fluoro-1-[(2R)-6-hydroxy-6-(1H-indazol-7-yl)hexan-2-yl]-9a,11a-dimethyl-2,3,3a,5,5a,6,7,8,9,9a,9b,10,11,11a-tetradecahydro-1H-cyclopenta[1,2-a]phenanthrene-6,7-diol]	0.259	
COc1cccc(F)c1C(O)CCC[C@@H](C)[C@H]1CC[C@H]2[C@H]3[C@H](CC[C@]12C)[C@@]1(C)CC[C@H](O)C(=O)[C@@H]1CC3(F)F (stereo partly drawn) [Compound 124, (1R,3aS,3bS,5aR,7S,9aR,9bS,11aR)-4,4-difluoro-1-[(2R)-6-(2-fluoro-6-methoxyphenyl)-6-hydroxyhexan-2-yl]-7-hydroxy-9a,11a-dimethylhexadecahydro-1H-cyclopenta[1,2-a]phenanthren-6-one]	0.064	
C[C@H](CCCC(O)c1ccc2c(c1)OC(F)(F)O2)[C@H]1CC[C@H]2[C@H]3[C@H](CC[C@]12C)[C@@]1(C)CC[C@H](O)[C@H](O)[C@@H]1CC3(F)F (single isomer, unassigned) [Compound 258, (1R,3aS,3bS,5aR,6R,7S,9aR,9bS,11aR)-1-[(2R,6S)-6-(2,2-difluorobenzo[d][1,3]dioxol-5-yl)-6-hydroxyhexan-2-yl]-4,4-difluoro-9a,11a-dimethylhexadecahydro-1H-cyclopenta[1,2-a]phenanthrene-6,7-diol or (1R,3aS,3bS,5aR,6R,7S,9aR,9bS,11aR)-1-[(2R,6R)-6-(2,2-difluorobenzo[d][1,3]dioxol-5-yl)-6-hydroxyhexan-2-yl]-4,4-difluoro-9a,11a-dimethylhexadecahydro-1H-cyclopenta[1,2-a]phenanthrene-6,7-diol]	0.454	
COc1cc(F)nc(OC)c1C(O)CCC[C@@H](C)[C@H]1CC[C@H]2[C@H]3[C@H](CC[C@]12C)[C@@]1(C)CC[C@H](O)[C@H](O)[C@@H]1CC3(F)F (stereo partly drawn) [Compound 214, (1R,3aS,3bS,5aR,6R,7S,9aR,9bS,11aR)-4,4-difluoro-1-[(2R)-6-(6-fluoro-2,4-dimethoxypyridin-3-yl)-6-hydroxyhexan-2-yl]-9a,11a-dimethylhexadecahydro-1H-cyclopenta[1,2-a]phenanthrene-6,7-diol]	0.183	
C[C@H](CCCC(O)c1cccc2cnn(C)c12)[C@H]1CC[C@H]2[C@H]3[C@H](CC[C@]12C)[C@@]1(C)CC[C@H](O)[C@H](O)[C@@H]1CC3(F)F (stereo partly drawn) [Compound 207, (1R,3aS,3bS,5aR,6R,7 S,9aR,9bS,11aR)-4,4-Difluoro-1-[(2R)-6-hydroxy-6-(1-methylindazol-7-yl)hexan-2-yl]-9a,11a-dimethylhexadecahydro-1H-cyclopenta[1,2-a]phenanthrene-6,7-diol]	0.206	
COc1nc(C)ccc1C(O)CCC[C@@H](C)[C@H]1CC[C@H]2[C@H]3[C@H](CC[C@]12C)[C@@]1(C)CC[C@H](O)[C@H](O)[C@@H]1CC3(F)F (single isomer, unassigned) [Compound 217, (1R,3aS,3bS,5aR,6R,7S,9aR,9bS,11aR)-4,4-difluoro-1-[(2R,6S)-6-hydroxy-6-(2-methoxy-6-methylpyridin-3-yl)hexan-2-yl]-9a,11a-dimethylhexadecahydro-1H-cyclopenta[1,2-a]phenanthrene-6,7-diol or (1R,3aS,3bS,5aR,6R,7S,9aR,9bS,11aR)-4,4-difluoro-1-[(2R,6R)-6-hydroxy-6-(2-methoxy-6-methylpyridin-3-yl)hexan-2-yl]-9a,11a-dimethylhexadecahydro-1H-cyclopenta[1,2-a]phenanthrene-6,7-diol]	0.21	
